Active and inactive are the calls of the source.
Columns and labels:
[1] = biological target: T1, High affinity choline transporter 1 (Homo sapiens, UniProt Q9GZV3); assay: human choline transporter blockers, potency – cell-based, 5-point CRC, membrane potential dye, dose response (AID 504840); assay type: functional
T1 sequence (Q9GZV3 whole entry): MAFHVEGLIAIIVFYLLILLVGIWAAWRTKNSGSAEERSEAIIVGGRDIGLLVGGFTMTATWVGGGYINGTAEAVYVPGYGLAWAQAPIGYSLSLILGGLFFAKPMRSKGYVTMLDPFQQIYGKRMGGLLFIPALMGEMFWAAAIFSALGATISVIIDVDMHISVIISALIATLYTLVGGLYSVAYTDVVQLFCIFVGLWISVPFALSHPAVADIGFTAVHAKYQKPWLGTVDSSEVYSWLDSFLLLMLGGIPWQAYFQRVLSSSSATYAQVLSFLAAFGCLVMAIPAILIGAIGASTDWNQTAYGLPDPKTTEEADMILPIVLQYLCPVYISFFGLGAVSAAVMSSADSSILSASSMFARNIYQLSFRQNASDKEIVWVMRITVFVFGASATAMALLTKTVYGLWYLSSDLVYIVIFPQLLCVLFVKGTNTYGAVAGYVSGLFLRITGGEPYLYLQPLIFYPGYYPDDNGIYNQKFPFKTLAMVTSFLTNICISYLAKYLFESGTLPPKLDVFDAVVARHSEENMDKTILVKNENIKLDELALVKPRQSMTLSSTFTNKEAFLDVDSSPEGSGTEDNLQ

[2] = viability of PTEN-deleted HCT116 cells – cell-based, HCT116 PTEN knockout, dose response (AID 1047); assay type: functional;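 further: HCT116 colon tumor cells with PTEN knocked out; cells exposed to compound for 60 hours before readout; potency for loss of cell viability measured by luminescence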
[3] = viability of HCT116 lacking mutant beta-catenin – cell-based, human colon tumor, dose response (AID 1045); assay type: functional;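 further: HCT116 colon tumor cells with beta catenin knocked out; cells exposed to compound for 60 hours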
[4] = biological target: T2, Short transient receptor potential channel 4 (Mus musculus, UniProt Q9QUQ5); assay: calcium entry via TRPC4 opening agents – cell-based, HEK293 TRPC4/mu-opioid, Fluo-4 calcium, dose response (AID 434937); assay type: functional
T2 sequence (Q9QUQ5 whole entry): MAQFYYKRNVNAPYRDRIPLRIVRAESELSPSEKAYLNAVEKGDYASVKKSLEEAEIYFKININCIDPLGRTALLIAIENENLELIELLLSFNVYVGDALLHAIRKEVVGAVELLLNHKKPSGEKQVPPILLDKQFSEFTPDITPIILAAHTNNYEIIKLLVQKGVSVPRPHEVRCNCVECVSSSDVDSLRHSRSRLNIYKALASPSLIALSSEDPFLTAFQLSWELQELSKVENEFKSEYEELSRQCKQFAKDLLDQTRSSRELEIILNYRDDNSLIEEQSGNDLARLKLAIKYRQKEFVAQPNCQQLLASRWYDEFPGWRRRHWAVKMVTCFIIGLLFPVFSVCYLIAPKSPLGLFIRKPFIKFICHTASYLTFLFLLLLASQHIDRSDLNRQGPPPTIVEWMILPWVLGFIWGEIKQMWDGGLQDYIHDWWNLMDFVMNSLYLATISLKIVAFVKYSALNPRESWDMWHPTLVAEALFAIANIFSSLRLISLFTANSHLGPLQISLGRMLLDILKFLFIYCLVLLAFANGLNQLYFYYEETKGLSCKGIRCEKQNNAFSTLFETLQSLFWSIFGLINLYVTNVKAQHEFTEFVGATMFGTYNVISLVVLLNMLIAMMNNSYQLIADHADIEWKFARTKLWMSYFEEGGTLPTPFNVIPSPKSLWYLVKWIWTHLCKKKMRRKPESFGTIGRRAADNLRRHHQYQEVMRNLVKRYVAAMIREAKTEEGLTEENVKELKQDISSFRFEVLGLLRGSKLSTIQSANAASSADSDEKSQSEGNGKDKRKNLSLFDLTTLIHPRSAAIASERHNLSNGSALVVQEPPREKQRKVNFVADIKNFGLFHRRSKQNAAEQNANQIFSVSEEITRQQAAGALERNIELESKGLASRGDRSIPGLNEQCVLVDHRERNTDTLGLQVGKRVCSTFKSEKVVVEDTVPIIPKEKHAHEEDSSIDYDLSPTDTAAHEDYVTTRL

[5] = biological target: T3, Aminopeptidase N (Plasmodium falciparum FcB1/Columbia, UniProt O96935); assay: malaria alanyl aminopeptidase activity blockers – biochemical, fluorogenic H-Leu-NHMec substrate, 1536-well (AID 1445); parameters: species or system Plasmodium falciparum 3D7, 3D7
T3 sequence (O96935 whole entry): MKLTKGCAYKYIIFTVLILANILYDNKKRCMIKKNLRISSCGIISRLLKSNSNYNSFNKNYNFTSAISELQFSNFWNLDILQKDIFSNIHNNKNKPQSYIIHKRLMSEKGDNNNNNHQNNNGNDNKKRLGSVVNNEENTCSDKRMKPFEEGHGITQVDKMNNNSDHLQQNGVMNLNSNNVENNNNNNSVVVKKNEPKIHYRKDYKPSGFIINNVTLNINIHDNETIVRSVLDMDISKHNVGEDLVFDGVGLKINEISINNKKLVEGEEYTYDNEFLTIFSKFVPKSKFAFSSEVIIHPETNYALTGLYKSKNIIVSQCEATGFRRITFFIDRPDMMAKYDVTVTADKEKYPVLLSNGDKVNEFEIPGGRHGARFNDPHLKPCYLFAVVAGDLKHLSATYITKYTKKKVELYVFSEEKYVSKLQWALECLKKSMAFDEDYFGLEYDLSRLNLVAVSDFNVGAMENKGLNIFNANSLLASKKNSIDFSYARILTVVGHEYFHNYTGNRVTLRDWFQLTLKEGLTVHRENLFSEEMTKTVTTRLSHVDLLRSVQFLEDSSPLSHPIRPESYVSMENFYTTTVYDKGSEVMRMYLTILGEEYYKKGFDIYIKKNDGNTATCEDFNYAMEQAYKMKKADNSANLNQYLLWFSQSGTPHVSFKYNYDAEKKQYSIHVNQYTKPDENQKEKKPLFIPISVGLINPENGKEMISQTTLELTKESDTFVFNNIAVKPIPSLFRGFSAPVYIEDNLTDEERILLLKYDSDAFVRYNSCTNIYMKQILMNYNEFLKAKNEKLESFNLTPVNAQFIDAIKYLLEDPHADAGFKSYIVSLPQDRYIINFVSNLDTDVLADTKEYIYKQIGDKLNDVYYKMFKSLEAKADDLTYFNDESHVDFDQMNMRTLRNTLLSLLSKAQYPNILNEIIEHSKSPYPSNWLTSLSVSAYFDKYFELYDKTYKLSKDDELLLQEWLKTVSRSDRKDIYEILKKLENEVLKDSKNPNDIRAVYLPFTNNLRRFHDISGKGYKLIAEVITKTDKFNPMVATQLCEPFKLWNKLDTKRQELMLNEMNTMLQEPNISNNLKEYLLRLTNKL

[6] = biological target: Cytochrome P450 2C19 (Homo sapiens, UniProt P33261); assay: Cytochrome panel assay with activity outcomes. Panel member name: p450-cyp2c19 Compounds with AC50 equal or less than 10 uM are considered active; assay type: functional; details: read-out: AC50
[7] = biological target: Cytochrome P450 2C9 (Homo sapiens, UniProt P11712)
[8] = biological target: T4, Cytochrome P450 1A2 (Homo sapiens, UniProt P05177);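 further: PubChem cytochrome P450 panel assay, CYP1A2 panel member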
T4 sequence (P05177 whole entry): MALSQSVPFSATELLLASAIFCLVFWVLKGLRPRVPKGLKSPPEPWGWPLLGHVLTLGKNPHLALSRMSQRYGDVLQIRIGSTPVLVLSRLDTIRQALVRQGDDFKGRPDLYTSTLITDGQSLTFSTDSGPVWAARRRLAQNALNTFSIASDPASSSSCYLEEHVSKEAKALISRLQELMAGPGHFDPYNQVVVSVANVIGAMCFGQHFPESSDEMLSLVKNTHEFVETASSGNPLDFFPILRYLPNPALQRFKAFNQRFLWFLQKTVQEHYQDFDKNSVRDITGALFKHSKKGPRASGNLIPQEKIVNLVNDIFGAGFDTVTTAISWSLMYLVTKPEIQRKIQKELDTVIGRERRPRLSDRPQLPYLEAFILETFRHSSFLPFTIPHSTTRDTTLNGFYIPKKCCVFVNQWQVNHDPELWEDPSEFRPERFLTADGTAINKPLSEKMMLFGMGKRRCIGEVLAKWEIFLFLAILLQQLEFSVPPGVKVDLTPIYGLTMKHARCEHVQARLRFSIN

[9] = biological target: Cytochrome P450 2D6 (Homo sapiens, UniProt P10635)
[10] = biological target: T5, RNA-binding protein pos-1 (Caenorhabditis elegans, UniProt G5EF15); assay: disruptors of C. elegans POS-1 RNA interaction – biochemical, fluorescence polarization, dose response (AID 1964);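 further: purified POS-1 fused to maltose binding protein made in E. coli; potency of compounds blocking POS-1 binding to fluorescent RNA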
T5 sequence (G5EF15 whole entry): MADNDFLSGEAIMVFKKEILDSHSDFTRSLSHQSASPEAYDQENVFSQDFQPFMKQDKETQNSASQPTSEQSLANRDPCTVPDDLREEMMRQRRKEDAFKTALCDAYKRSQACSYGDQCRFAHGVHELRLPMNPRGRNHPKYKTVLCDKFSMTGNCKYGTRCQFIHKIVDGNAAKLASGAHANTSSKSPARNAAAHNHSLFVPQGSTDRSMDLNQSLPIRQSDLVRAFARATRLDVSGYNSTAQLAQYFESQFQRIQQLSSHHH

[11] = A cytotoxicity screen of small molecule inhibitors of the PhoP region in Salmonella typhi identified in the primary screen. [Related pubchem assays: 1850, 1864, 1985 ]; assay type: functional
[12] = biological target: T6, Zinc finger protein mex-5 (Caenorhabditis elegans, UniProt Q9XUB2); assay: potency of MEX-5 RNA-binding blockers – biochemical, C. elegans, fluorescence polarization, dose response (AID 1960)
T6 sequence (Q9XUB2 whole entry): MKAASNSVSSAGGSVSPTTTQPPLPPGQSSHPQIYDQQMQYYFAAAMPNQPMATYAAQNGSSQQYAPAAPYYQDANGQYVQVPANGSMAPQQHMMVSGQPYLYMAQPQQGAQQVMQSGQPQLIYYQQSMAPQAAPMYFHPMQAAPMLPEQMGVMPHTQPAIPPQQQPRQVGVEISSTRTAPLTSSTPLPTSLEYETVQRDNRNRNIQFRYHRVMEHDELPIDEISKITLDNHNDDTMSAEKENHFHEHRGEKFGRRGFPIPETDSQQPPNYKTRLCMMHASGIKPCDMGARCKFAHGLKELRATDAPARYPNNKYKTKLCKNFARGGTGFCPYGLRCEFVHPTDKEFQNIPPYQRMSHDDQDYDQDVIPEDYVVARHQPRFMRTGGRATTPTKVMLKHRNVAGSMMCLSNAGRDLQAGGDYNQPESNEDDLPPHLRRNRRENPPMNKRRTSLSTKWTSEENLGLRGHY

[13] = biological target: T7, Polyadenylate-binding protein 1 (Homo sapiens, UniProt P11940); assay: MLLE binding blockers, Cy5 peptide tracer – biochemical, fluorescence polarization, Cy5-PAM2 peptide, secondary, miRNA deadenylation inhibitor project, dose response (AID 602260); assay type: functional; details: read-out: IC50_Mean
[14] = biological target: T7, Polyadenylate-binding protein 1; assay: MLLE domain peptide-binding blockers, IC50 – biochemical, fluorescence polarization, FITC-PAM2 peptide, dose response (AID 602259); assay type: functional; details: read-out: IC50_Mean
[15] = viability of uninfected HEp-2 cells – cell-based, HTS, cytotoxicity control for RSV inhibitor project, dose response (AID 2410); assay type: functional; details: human respiratory syncytial virus
[16] = microbe, parasite or virus in culture; assay type: functional; details: Mycobacterium tuberculosis
[17] = Luminescence Cell-Based Dose Retest to Confirm Inhibitors of Cancer Stem Cells. [Related pubchem assays (depositor defined):AID2717, AID2721]; assay type: functional, Homo sapiens; details: Homo sapiens

Sequence of Cytochrome P450 2C9 (P11712 whole entry): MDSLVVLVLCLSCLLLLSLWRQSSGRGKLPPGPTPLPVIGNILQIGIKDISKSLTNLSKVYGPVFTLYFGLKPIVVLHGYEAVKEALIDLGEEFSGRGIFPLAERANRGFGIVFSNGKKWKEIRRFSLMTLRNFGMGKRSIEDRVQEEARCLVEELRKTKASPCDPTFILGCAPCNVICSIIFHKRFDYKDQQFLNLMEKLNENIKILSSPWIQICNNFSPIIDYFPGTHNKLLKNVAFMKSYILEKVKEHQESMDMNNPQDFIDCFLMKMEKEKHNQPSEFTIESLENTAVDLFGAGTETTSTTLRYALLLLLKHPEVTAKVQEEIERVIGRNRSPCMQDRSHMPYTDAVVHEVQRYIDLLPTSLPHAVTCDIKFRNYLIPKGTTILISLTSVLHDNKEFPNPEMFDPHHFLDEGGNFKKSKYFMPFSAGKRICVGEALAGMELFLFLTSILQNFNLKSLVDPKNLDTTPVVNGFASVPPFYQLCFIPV
Sequence of Cytochrome P450 2D6 (P10635 whole entry, the tested form may be a part): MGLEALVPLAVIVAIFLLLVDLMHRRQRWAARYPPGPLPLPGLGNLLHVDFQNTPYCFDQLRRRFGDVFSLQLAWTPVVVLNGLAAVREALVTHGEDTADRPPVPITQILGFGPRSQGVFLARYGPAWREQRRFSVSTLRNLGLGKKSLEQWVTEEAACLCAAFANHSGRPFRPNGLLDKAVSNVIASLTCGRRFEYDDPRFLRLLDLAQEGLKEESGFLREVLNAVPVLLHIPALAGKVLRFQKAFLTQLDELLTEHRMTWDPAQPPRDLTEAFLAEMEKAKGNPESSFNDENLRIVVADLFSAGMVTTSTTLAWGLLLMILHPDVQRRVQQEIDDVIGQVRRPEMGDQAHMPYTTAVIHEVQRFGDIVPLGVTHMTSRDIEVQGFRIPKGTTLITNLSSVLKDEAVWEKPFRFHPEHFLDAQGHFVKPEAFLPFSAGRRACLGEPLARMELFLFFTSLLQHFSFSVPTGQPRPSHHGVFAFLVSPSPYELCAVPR
T7 sequence (P11940 whole entry, the tested form may be a part): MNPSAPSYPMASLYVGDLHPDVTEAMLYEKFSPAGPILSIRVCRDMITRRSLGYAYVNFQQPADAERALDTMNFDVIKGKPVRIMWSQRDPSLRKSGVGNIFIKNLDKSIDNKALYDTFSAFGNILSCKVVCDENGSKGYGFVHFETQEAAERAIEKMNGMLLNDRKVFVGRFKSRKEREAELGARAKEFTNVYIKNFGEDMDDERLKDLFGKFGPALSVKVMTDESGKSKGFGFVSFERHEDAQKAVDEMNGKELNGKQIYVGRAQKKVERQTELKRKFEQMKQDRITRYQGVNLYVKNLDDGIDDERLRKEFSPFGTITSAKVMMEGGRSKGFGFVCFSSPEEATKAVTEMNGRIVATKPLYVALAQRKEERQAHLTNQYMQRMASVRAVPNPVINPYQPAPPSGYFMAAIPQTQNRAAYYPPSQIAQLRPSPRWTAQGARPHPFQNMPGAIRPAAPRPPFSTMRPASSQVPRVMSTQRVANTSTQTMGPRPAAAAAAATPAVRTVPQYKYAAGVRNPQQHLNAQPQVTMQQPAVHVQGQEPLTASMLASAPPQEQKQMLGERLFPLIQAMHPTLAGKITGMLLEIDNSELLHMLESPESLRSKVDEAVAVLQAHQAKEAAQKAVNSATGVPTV
Sequence of Cytochrome P450 2C19 (P33261 whole entry): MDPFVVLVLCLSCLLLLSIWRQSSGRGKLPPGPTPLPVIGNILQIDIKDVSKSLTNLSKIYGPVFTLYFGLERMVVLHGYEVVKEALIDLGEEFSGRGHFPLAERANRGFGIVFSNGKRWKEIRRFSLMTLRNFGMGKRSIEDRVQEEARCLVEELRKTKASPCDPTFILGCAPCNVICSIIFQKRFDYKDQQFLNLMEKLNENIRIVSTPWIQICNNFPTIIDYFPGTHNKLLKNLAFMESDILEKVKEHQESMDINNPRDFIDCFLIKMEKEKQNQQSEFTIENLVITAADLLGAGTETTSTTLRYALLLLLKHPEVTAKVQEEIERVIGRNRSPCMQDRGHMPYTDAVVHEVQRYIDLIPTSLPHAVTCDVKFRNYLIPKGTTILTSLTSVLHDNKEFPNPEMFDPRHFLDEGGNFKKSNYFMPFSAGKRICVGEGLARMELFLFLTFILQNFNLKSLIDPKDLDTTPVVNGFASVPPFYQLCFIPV

O=C(CSc1nc2ccccc2c(=O)n1C1CC1)NCc1ccccc1
IC50 [1]: 4.79 µM (active)

Cc1ccccc1C(O)(Cc1ccccc1)C1CN2CCC1CC2 (stereo not drawn)
EC50 [2]: 14.8 µM (active) | EC50 [3]: 14.5 µM (active) | EC50 [4]: 5.31 µM (active)

CS(=O)(=O)N1CCC(C(=O)c2cccc(Cl)c2)CC1
IC50 [5]: 41.1 µM (active)

CNc1oc(C)nc1S(=O)(=O)c1ccc(C)cc1
AC50 [6]: 31.6 µM (inconclusive) | AC50 [7]: inconclusive

Cc1csc(NC(=O)CCN2C(=O)c3ccccc3S2(=O)=O)n1
IC50 [1]: 13.8 µM (active)

Nc1ccn([C@@H]2CC[C@H](CO)O2)c(=O)n1
AC50 [7]: inconclusive

COc1ccccc1CCC(=O)Nc1cc(S(=O)(=O)N2CCCCC2)ccc1N1CCN(C)CC1
EC50 [4]: 0.944 µM (active)

Cc1cccc(C)c1OCC(O)CN (stereo not drawn)
EC50 [4]: 4.22 µM (active)

CN(C)C(=O)c1ccc(-c2nc(NC3CCNCC3)c3ccccc3n2)cc1
AC50 [8]: 20 µM (inconclusive) | AC50 [7]: inconclusive

COCCOC(=O)c1c(C)oc2ccc(NS(=O)(=O)c3cccs3)cc12
IC50 [5]: 48.5 µM (active)

Cn1c(=O)c2nc(-c3ccccc3)oc2c2ccccc21
AC50 [6]: 28.2 µM (inconclusive) | AC50 [9]: 28.2 µM (inconclusive) | AC50 [7]: inconclusive

C=CCOc1ccc(/C=C2\C(=N)N3N=C(S(=O)(=O)CC)SC3=NC2=O)cc1OC
IC50 [5]: 24.5 µM (active)

Cc1cccc(NC(=O)c2sc3nc(-c4ccccc4)cn3c2C)n1
EC50 [10]: > 300 µM (not active) | EC50 [11]: > 50 µM (active) | EC50 [12]: > 300 µM (not active)

Cc1sc2nc(CSc3ccccc3)nc(NCCN(C)C)c2c1C
EC50 [4]: 2.99 µM (active)

Cn1c(CN2CCCCC2)nc2cc(NC(=O)c3ccccc3Cl)ccc21
IC50 [1]: 13.5 µM (active)

O=C(CCCN1C(=O)c2cccc3cccc(c23)C1=O)N1CCc2ccccc2C1
AC50 [9]: 22.4 µM (inconclusive) | AC50 [7]: inconclusive

CN(CCc1ccccn1)C(=O)CC1C(=O)NCCN1Cc1cccc(F)c1 (stereo not drawn)
EC50 [4]: 2.37 µM (active)

CN1CCN(c2ncc3nc(-c4cn(C)c5ccccc45)c(=O)n(C[C@H]4CCCO4)c3n2)CC1
AC50 [8]: 6.31 µM (inconclusive) | AC50 [7]: inconclusive

NC(=O)SCC(=O)Nc1ccc(Cl)c(Cl)c1
EC50 [11]: > 50 µM (active) | EC50 [2]: 50.8 µM (active) | EC50 [3]: 31 µM (active) | IC50 [13]: > 66 µM (inactive) | IC50 [14]: > 66 µM (inactive)

CCCc1cc(=O)oc2c(CN3CCN(C)CC3)c(O)c(Cl)cc12
IC50 [5]: 42 µM (active)

CCn1c(C)c(C)c2cc(C(=O)Nc3cccc(Cl)c3)ccc21
CC50 [15]: 30.4 µM (active) | CC50 [16]: > 40 µM (active) | AC50 [17]: 3.56 µM (active) | AC50 [7]: inconclusive

Reference: ChEMBL document CHEMBL1201862, “PubChem BioAssay data set” (2004)
